In patent publication US6391882B1, “4,5,6 and 7-indole and indoline derivatitives, their preparation and use” (H. Lundbeck A/S, priority 1998, dated 2002):
Where a name gives a salt, the structure may show the parent alone.

Compound | melting point
C#CCn1ccc2c(N3CCN(CCc4c[nH]c5cc(Cl)ccc45)CC3)cccc21 | 197 to 199 °C
C#CCn1ccc2c(N3CCN(CCc4c[nH]c5ccc(F)cc45)CC3)cccc21 | 153 to 155 °C
C#CCn1ccc2c(N3CCN(CCc4c[nH]c5ccc(Br)cc45)CC3)cccc21 | 154 to 156 °C
C=CCn1ccc2c(N3CCN(CCc4c[nH]c5ccc(F)cc45)CC3)cccc21 (as salt: fumarate) | 210 to 212 °C
C#CCn1ccc2c(N3CCN(CCc4c[nH]c5ccccc45)CC3)cccc21 (as salt: fumarate) | 193 to 195 °C
Fc1ccc2[nH]cc(CCN3CCN(c4cccc5[nH]ccc45)CC3)c2c1 (as salt: fumarate) [Compound 2c, 1-(2-(5-Fluoro-1H-indol-3-yl)ethyl)-4-(1H-indol-4-yl)piperazine] | 212 to 215 °C
Clc1ccc2c(CCN3CC=C(c4cccc5[nH]ccc45)CC3)c[nH]c2c1 (as salt: fumarate) [Compound 2g, 1-(2-(6-Chloro-1H-indol-3-yl)ethyl)-4-(1H-indol-4-yl)-1,2,3,6-tetrahydropyridine] | 225 to 226 °C
Fc1ccc2[nH]cc(CCN3CC=C(c4cccc5[nH]ccc45)CC3)c2c1 (as salt: fumarate) [Compound 2h, 1-(2-(5-Fluoro-1H-indol-3-yl)ethyl)-4-(1H-indol-4-yl)-1,2,3,6-tetrahydropyridine] | 204 to 206 °C
Fc1ccc2[nH]cc(CCN3CCN(c4cccc5c4ccn5Cc4ccccc4)CC3)c2c1 (as salt: fumarate) [Compound 2m, 1-(1-Benzyl-1H-indol-4-yl)-4-(2-(5-fluoro-1H-indol-3-yl)ethyl)piperazine] | 178 to 180 °C
c1ccc(Cn2ccc3c(N4CCN(CCc5c[nH]c6ccccc56)CC4)cccc32)cc1 (as salt: fumarate) [Compound 2s, 1-(1-Benzyl-1H-indol-4-yl)-4-(2-(1H-indol-3-yl)ethyl)piperazine] | 188 to 190 °C
Brc1ccc2[nH]cc(CCN3CCN(c4ccc5[nH]ccc5c4)CC3)c2c1 (as salt: fumarate) [Compound 2t, 1-(2-(5-Bromo-1H-indol-3-yl)ethyl)-4-(1H-indol-5-yl)piperazine] | 231 to 233 °C
Clc1ccc2[nH]cc(CCN3CCN(c4ccc5[nH]ccc5c4)CC3)c2c1 (as salt: fumarate) [Compound 2u, 1-(2-(5-Chloro-1H-indol-3-yl)ethyl)-4-(1H-indol-5-yl)piperazine] | 232 to 234 °C
N#Cc1c[nH]c2cccc(N3CCN(CCc4c[nH]c5ccccc45)CC3)c12 (as salt: fumarate) [Compound 4m, 1-(3-Cyano-1H-indol-4-yl)-4-(2-(1H-indol-3-yl)ethyl)piperazine] | > 250 °C
N#Cc1c[nH]c2cccc(N3CCN(CCc4coc5ccc(F)cc45)CC3)c12 (as salt: fumarate) [Compound 4n, 1-(3-Cyano-1H-indol-4-yl)-4-(2-(5-fluoro-3-benzofuranyl)ethyl)piperazine] | 235 to 237 °C
N#Cc1c[nH]c2cccc(N3CCN(CCc4c[nH]c5cc(Cl)ccc45)CC3)c12 (as salt: fumarate) [Compound 4o, 1-(2-(6-Chloro-1H-indol-3-yl)ethyl)-4-(3-cyano-1H-indol-4-yl)piperazine] | 234 to 236 °C
Fc1ccc2occ(CCCN3CC=C(c4cccc5[nH]ccc45)CC3)c2c1 (as salt: fumarate) [Compound 4s, 1-(3-(5-Fluoro-3-benzofuranyl)-1-propyl)-4-(1H-indol-4-yl)-1,2,3,6-tetrahydropyridine] | 183 to 185 °C
N#Cc1c[nH]c2cccc(N3CCN(CCc4c[nH]c5cccc(Cl)c45)CC3)c12 (as salt: fumarate) [Compound 4x, 1-(2-(4-Chloro-1H-indol-3-yl)ethyl)-4-(3-cyano-1H-indol-4-yl)piperazine] | > 250 °C
Fc1ccc2occ(CCCCN3CCN(c4cccc5[nH]ccc45)CC3)c2c1 (as salt: hydrochloride) [Compound 1d, 1-(4-(5-Fluoro-3-benzofuranyl)-1-butyl)-4-(1H-indol-4-yl)piperazine] | 241 to 244 °C
Fc1ccc2occ(CCCN3CCN(c4cccc5[nH]ccc45)CC3)c2c1 (as salt: hydrochloride) [Compound 1h, 1-(3-(5-Fluoro-3-benzofuranyl)-1-propyl)-4-(1H-indol-4-yl)piperazine] | 230 to 234 °C
Cc1oc2c(F)c(F)c(F)c(F)c2c1CCN1CCN(c2cccc3[nH]ccc23)CC1 (as salt: hydrochloride) [Compound 1i, 1-(2-(2-Methyl-4,5,6,7-tetrafluoro-3-benzofuranyl)ethyl)-4-(1H-indol-4-yl)piperaziine] | 181 to 187 °C
Fc1ccc2occ(CN3CCN(c4cccc5[nH]ccc45)CC3)c2c1 (as salt: hydrochloride) [Compound 4l, 1-(5-Fluoro-3-benzofuranylmethyl)-4-(1H-indol-4-4-yl)piperazine] | 238 to 240 °C
Cc1ccc2occ(CCN3CCN(c4cccc5[nH]ccc45)CC3)c2c1 (as salt: hydrochloride) [Compound 4q, 1-(1H-Indol-4-yl)-4-(2-(5-methyl-3-benzofuranyl)ethyl)piperazine] | 258 to 260 °C
c1cc(N2CCN(Cc3coc4ccccc34)CC2)c2cc[nH]c2c1 (as salt: oxalate) [Compound 1b, 1-(3-Benzofuranylmethyl)-4-(1H-indol-4-yl)piperazine] | 226 to 228 °C
Fc1ccc2occ(CCN3CCN(c4cccc5[nH]ccc45)CC3)c2c1 (as salt: oxalate) [Compound 1c, 1-(2-(5-Fluoro-3-benzofuranyl)ethyl)-4-(1H-indol-4-yl)piperazine] | 196 to 197 °C
c1ccc2c(CCN3CCN(c4cccc5[nH]ccc45)CC3)c[nH]c2c1 (as salt: oxalate) [Compound 1e, 1-(2-(1H-indol-3-yl)ethyl)-4-(1H-indol-4-yl)piperazine] | 167 to 169 °C
c1ccc2c(CCCN3CCN(c4cccc5[nH]ccc45)CC3)c[nH]c2c1 (as salt: oxalate) [Compound 1f, 1-(3-(1H-indol-3-yl)-1-propyl)-4-(1H-indol-4-yl)piperazine] | 198 to 204 °C
c1ccc2c(CCCCN3CCN(c4cccc5[nH]ccc45)CC3)c[nH]c2c1 (as salt: oxalate) [Compound 1g, 1-(4-(1H-indol-3-yl)-1-butyl)-4-(1H-indol-4yl)piperazine] | 189 to 193 °C
c1cc(N2CCN(CCc3n[nH]c4ccccc34)CC2)c2cc[nH]c2c1 (as salt: oxalate) [Compound 1j, 1-(2-(3-Indazolyl)ethyl)-4-(1H-indol-4-yl)piperazine] | 149 to 151 °C
Clc1ccc2c(CCN3CCN(c4cccc5[nH]ccc45)CC3)n[nH]c2c1 (as salt: oxalate) [Compound 1k, 1-(2-(6-Chloro-3-indazolyl)ethyl)-4-(1H-indol-4-yl)piperazine] | 255 to 258 °C
N#Cc1cccc2c(CCN3CCN(c4cccc5[nH]ccc45)CC3)c[nH]c12 (as salt: oxalate) [Compound 1l, 1-(2-(7-Cyano-1H-indol-3-yl)ethyl)-4-(1H-indol-4-yl)piperazine] | 241 to 243 °C
